Laboratory results: the NIST ThermoML archive (doi:10.1021/je800530u)

Conditions: Liquid, Closed cell (Static) method

O [water]
Conditions | vapor or sublimation pressure [kPa]
282.87 K | 1.177
283.15 K | 1.2
287.87 K | 1.636
292.87 K | 2.244
293.15 K | 2.284
297.87 K | 3.044
302.87 K | 4.081
303.15 K | 4.148
307.87 K | 5.416
312.87 K | 7.114
313.15 K | 7.222
317.87 K | 9.258
322.87 K | 11.94
323.15 K | 12.11
327.87 K | 15.27
332.87 K | 19.36
333.15 K | 19.62
337.87 K | 24.37
342.87 K | 30.44
343.15 K | 30.82
347.87 K | 37.76
352.87 K | 46.53
353.15 K | 47.07
357.87 K | 56.98
362.87 K | 69.35
363.15 K | 70.1
363.8 K | 71.88

NCCO [2-aminoethan-1-ol]
Conditions | vapor or sublimation pressure [kPa]
283.15 K | 0.0158
283.34 K | 0.016
288.34 K | 0.02533
293.15 K | 0.0382
293.34 K | 0.03866
298.34 K | 0.05866
303.15 K | 0.0867
303.34 K | 0.08799
308.34 K | 0.1293
313.15 K | 0.1855
313.34 K | 0.188
318.34 K | 0.2693
323.15 K | 0.3762
323.34 K | 0.3813
328.34 K | 0.5333
333.15 K | 0.7274
333.34 K | 0.7359
338.34 K | 1.007
343.15 K | 1.347
343.34 K | 1.363
348.34 K | 1.827
353.15 K | 2.4
353.34 K | 2.425
358.34 K | 3.193
363.09 K | 4.113
363.15 K | 4.126

CN1CCOCC1 [N-methylmorpholine]
Conditions | vapor or sublimation pressure [kPa]
273.18 K | 0.6893
278.18 K | 0.9533
283.18 K | 1.3
288.18 K | 1.748
293.18 K | 2.322
298.18 K | 3.049
303.18 K | 3.96
308.18 K | 5.09
313.15 K | 6.471
313.18 K | 6.479
318.18 K | 8.174
323.15 K | 10.21
323.18 K | 10.22
328.18 K | 12.68
333.15 K | 15.58
333.18 K | 15.6
338.18 K | 19.06
343.15 K | 23.1
343.18 K | 23.13
348.18 K | 27.88
353.08 K | 33.27
353.15 K | 33.35
363.15 K | 47.02
